Laboratory results from patent US20080293712A1, “Benzo[C][2,7]Naphtyridine Derivatives, Methods of Making Thereof and Methods of Use Thereof” (WYETH, priority 2007, published 2008).

Tests used:
Format in all cases: biochemical
PDK-1 = molecular target: T1, PDK-1 (Homo sapiens, UniProt O15530); test: PDK-1 kinase inhibition ELISA assay (phosphorylation of His6-tagged SGK1 S422D by PDK-1); conditions: PDK-1 ELISA, Table 11; read-out: Average IC50
T1 sequence (O15530 1-556): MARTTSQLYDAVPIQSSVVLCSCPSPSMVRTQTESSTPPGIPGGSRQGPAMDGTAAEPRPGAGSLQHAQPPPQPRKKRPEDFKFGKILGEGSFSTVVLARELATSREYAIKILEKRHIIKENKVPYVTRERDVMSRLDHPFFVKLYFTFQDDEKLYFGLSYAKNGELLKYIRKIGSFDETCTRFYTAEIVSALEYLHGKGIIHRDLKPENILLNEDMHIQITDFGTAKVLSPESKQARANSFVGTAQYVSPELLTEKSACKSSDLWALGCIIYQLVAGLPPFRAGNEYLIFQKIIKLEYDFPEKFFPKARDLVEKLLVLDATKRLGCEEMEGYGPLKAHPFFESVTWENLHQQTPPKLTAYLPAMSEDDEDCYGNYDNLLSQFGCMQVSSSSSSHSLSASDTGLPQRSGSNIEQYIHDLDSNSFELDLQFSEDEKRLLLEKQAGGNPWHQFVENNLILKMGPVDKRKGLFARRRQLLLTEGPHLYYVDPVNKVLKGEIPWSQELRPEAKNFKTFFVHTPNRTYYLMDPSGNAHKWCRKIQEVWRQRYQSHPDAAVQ
Description: In an in vitro assay, His6-tagged SGK1 with S422D mutation (formerly Upstate Biotech, now Millipore) on Thr256 is allowed to be phosphorylated by PDK-1 in the presence of a Benzo[c][2,7]naphthyridine Derivative. After 20 minutes, the reaction is quenched via the addition of urea. The His6-tagged SGK1 is then bound to 96 well Ni-NTA HisSorb plates (Quiagen, Inc., Valencia, Calif.) and phosphorylated SGK1 is quantitatively detected using rabbit derived anti-phospho SGK antibody (Cell Signaling Technology, Danvers, Mass.) as the primary antibody and horseradish peroxidase (HRP)—coupled anti-rabbit antibody (formerly Zymed, now Invitrogen, Carlsbad, Calif.) as the secondary antibody. HRP is then detected using a chemiluminescent substrate (Pierce Chemical Co., Woburn, Mass.).

PKA = PKA (Homo sapiens, UniProt P17612); test: PKA kinase inhibition, Z'-LYTE FRET assay
Source text: Z′-Lyte™ assay is an in vitro FRET-based assay that utilizes differential sensitivity of phosphorylated and non-phosphorylated peptides to proteolytic cleavage. The peptide substrate (also available from Invitrogen for each of PKA, Akt1 and S6K) is labeled with two different fluorophores, a fluorescence donor at one end of the peptide and a fluorescence acceptor at the other end of the peptide. In the primary kinase reaction, the kinase phosphorylates the peptide substrate in the presence of ATP. In the secondary reaction, a site-specific protease recognizes and cleaves non-phosphorylated peptides, but not phosphorylated peptides. Cleavage disrupts FRET between the donor and acceptor fluorophores on the peptide, whereas uncleaved phosphorylated peptides maintain FRET. Based on a formula that uses the ratio of donor emission (at 460 nm) to acceptor emission (at 535 nM) after excitation of the donor fluorophore at 400 nm, the extent of phosphorylation of the peptide substrates is calculated.

Akt1 = Akt1 (Homo sapiens, UniProt P31749); test: Akt1 kinase inhibition, Z'-LYTE FRET assay; conditions: 100 μM ATP
Sequence of Akt1 (P31749 whole entry, species assumed): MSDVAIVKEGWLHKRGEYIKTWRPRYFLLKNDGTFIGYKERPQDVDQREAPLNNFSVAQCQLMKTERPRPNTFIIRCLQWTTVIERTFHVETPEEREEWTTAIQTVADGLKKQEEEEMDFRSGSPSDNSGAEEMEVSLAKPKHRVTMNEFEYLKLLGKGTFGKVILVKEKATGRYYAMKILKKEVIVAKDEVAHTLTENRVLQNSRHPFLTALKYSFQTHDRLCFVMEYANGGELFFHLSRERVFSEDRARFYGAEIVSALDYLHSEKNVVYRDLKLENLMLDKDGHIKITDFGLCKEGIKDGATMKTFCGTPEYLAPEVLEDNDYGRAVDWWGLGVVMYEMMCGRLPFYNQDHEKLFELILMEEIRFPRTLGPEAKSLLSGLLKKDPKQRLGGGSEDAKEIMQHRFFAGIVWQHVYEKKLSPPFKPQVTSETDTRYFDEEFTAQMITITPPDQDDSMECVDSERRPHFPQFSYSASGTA
Source text: (§1) The ability of illustrative Benzo[c][2,7]naphthyridine Derivatives to inhibit PKA, Akt1, S6K in vitro can be determined using a Fluorescence Resonance Energy Transfer (FRET) assay, such as a Z′-LYTE™ Kinase Assay Platform, commercially available from Invitrogen (c.f. Rodems et al., ASSAY Drug Devel. Technol. 1:9-19 (2002) and Zhang et al., J. Biomol. Screen. 4:67-73 (1999)). Z′-Lyte™ assay is an in vitro FRET-based assay that utilizes differential sensitivity of phosphorylated and non-phosphorylated peptides to proteolytic cleavage. The peptide substrate (also available from Invitrogen for each of PKA, Akt1 and S6K) is labeled with two different fluorophores, a fluorescence donor at one end of the peptide and a fluorescence acceptor at the other end of the peptide. In the primary kinase reaction, the kinase phosphorylates the peptide substrate in the presence of ATP. In the secondary reaction, a site-specific protease recognizes and cleaves non-phosphorylated peptides, but not phosphorylated peptides. Cleavage disrupts FRET between the donor and acceptor fluorophores on the peptide, whereas uncleaved phosphorylated peptides maintain FRET. Based on a formula that uses the ratio of donor emission (at 460 nm) to acceptor emission (at […]) after excitation of the donor fluorophore at 400 nm, the extent of phosphorylation of the peptide substrates is calculated. IC50 values of illustrative Benzo[c][2,7]naphthyridine Derivatives, shown in Table 12, are calculated using LSW Data Analysis package add-in for Excel (Microsoft).

S6K = S6K (Homo sapiens, UniProt P23443); test: S6K kinase inhibition, Z'-LYTE FRET assay; conditions: 100 μM ATP
Sequence of S6K (P23443 whole entry): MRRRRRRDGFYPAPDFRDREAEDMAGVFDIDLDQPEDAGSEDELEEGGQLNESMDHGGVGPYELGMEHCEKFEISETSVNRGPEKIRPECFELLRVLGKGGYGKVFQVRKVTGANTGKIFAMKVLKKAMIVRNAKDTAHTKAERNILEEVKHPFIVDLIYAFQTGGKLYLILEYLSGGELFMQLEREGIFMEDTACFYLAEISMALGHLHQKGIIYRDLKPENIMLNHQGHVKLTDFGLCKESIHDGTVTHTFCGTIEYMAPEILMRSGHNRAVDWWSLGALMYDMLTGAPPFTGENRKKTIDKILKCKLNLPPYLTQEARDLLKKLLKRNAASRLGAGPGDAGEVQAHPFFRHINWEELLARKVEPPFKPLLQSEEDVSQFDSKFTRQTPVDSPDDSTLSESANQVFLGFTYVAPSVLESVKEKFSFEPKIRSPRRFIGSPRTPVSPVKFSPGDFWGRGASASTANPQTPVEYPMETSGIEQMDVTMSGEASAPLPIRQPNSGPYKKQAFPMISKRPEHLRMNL
Source text: as §1

[1] = molecular target: T2, human PKCθ full length enzyme (Homo sapiens, UniProt Q04759); test: PKCθ kinase inhibition, IMAP fluorescence polarization assay; conditions: 6 μM ATP
T2 construct: human PKCθ full length enzyme; purchased Panvera, Madison, Wis., now Invitrogen, Carlsbad, Calif; P2996
T2 sequence (Q04759 whole entry): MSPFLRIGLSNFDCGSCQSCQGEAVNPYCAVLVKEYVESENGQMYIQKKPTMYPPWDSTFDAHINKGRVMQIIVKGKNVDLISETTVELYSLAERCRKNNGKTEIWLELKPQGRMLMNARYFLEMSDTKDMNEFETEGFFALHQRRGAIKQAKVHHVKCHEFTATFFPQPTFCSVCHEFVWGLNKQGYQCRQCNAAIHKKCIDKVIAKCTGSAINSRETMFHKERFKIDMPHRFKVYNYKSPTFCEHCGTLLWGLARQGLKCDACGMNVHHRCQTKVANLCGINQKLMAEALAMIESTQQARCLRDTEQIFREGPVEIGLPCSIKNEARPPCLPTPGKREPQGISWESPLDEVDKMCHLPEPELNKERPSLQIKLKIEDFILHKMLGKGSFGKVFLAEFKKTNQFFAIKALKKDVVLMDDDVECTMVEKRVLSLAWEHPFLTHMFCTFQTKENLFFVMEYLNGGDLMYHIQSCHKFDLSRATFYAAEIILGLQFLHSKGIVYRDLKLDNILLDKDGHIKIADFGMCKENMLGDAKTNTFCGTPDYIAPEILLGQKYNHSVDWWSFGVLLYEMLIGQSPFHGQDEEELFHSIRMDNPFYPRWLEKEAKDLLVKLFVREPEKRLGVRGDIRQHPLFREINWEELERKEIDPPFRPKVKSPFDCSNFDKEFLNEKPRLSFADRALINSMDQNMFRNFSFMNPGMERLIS
Source text: The ability of illustrative Benzo[c][2,7]naphthyridine Derivatives to inhibit PKCθ can be determined using an IMAP Assay (Molecular Devices Corporation, Sunnyvale, Calif.). The materials used include the following: human PKCθ full length enzyme (Panvera, Madison, Wis., now Invitrogen, Carlsbad, Calif., Cat. No. P2996); substrate peptide: 5FAM-[…]-OH (Molecular Devices, Cat. No. RP7032); ATP (Sigma-Aldrich, St. Louis, Mo., Sigma Cat. No. A2383); DTT (e.g., Pierce, now Fisher Scientific, Waltham, Mass., Pierce Cat. No. 20291); 5× kinase reaction buffer (Molecular Devices, Cat. No. R7209); 5× binding buffer A (Molecular Devices, Cat. No. R7282), 5× binding buffer B (Molecular Devices, Cat. No. R7209); IMAP Beads (Molecular Devices, Cat. No. R7284); and 384-well plates (Corning Costar, Acton, Mass., Cat. No. 3710). The reaction buffer is prepared by diluting the 5× stock reaction buffer and adding DTT to obtain a concentration of 3.0 mM. The binding buffer is prepared by diluting the 5× binding buffer A. A master mix solution is prepared using a 90% dilution of the reaction buffer containing 2×ATP (12 μM) and 2× peptide (200 nM). […] The final concentration of compound is 2× and 10% DMSO. DMSO is added to the rest of the master mix to increase the concentration to 10%. 10 μl of the master mix containing 10% DMSO is added to the rest of the wells on the plate except the 2nd column. 20 μl is transferred from the first column to the 2nd column. The compounds are serially diluted in 2:1 ratio starting from the 2nd column. A 2× (2 nM) PKCθ solution is made in the reaction buffer. 10 μl of the PKCθ solution is added to every well to achieve these final concentrations: PKCθ—1 nM; ATP—6 μM; peptide—100 nM; DMSO—5%. Samples are incubated for 25 minutes at room temperature. The binding reagent is prepared by diluting the beads in 1× binding buffer to 800:1. 50 μl of the binding reagent is added to every well and incubated for 20 minutes. Fluorescence polarization is measured using EnVision™ 2100 multilabel reader (PerkinElmer Life Sciences, Wellesley, Mass.). Wells with no ATPs and wells with no enzymes are used as controls.

SMILES | IC50 (PDK-1) | IC50 (PKA; 20 μM ATP) | IC50 (PKA; 100 μM ATP) | IC50 (Akt1) | IC50 (S6K) | IC50 [1]
COc1cc2c(cc1OCCCN1CCCC1)ncc1c(N)nc(-c3cccnc3)cc12 [Ia-31, 9-Methoxy-2-pyridin-3-yl-8-(3-pyrrolidin-1-ylpropoxy)benzo[c]-2,7-naphthyridin-4-amine] | 120 nM | > 20000 nM | > 2000 nM | 170 nM | 422 nM | 
COc1cc2ncc3c(N)nc(-c4cncc(OC[C@@H](N)Cc5ccc(O)cc5)c4)cc3c2cc1OC [Ib-53, 4-((2S)-2-Amino-3-{[5-(4-amino-8,9-dimethoxybenzo[c]-2,7-naphthyridin-2-yl)pyridin-3-yl]oxy}propyl)phenol] | 17 nM | 400 nM | > 2000 nM | 15 nM | 86 nM | 
COc1cc2ncc3c(N)nc(-c4cncc(OC[C@H](N)CN5Cc6ccccc6C5)c4)cc3c2cc1OC [Ib-48, 2-(5-{[(2R)-2-amino-3-(1,3-dihydro-2H-isoindol-2-yl)propyl]oxy}pyridin-3-yl)-8,9-dimethoxybenzo[c]-2,7-naphthyridin-4-amine] | 34 nM | 2700 nM | > 2000 nM | 400 nM | 405 nM | 
COc1cc2c(cc1OCCN1CCCC1)ncc1c(N)nc(-n3ccnc3)cc12 [Ia-12, 2-(1H-imidazol-1-yl)-9-methoxy-8-(2-pyrrolidin-1-ylethoxy)benzo[c]-2,7-naphthyridin-4-amine] | 508 nM | > 10000 nM |  | 225 nM |  | 255 nM
Nc1nc(-n2ccnc2)cc2c1cnc1cc(/C=C/CCN3CCCC3)ccc12 [Ia-24, 2-(1H-imidazol-1-yl)-8-[(1E)-4-pyrrolidin-1-ylbut-1-en-1-yl]benzo[c]-2,7-naphthyridin-4-amine] | 97 nM | 240 nM | > 2000 nM | 75 nM | 1030 nM | 
COc1cc2ncc3c(N)nc(-c4cncc(OC[C@H]5CCCN5)c4)cc3c2cc1OC [Ib-61, 8,9-dimethoxy-2-{5-[(2R)-pyrrolidin-2-ylmethoxy]pyridin-3-yl}benzo[c]-2,7-naphthyridin-4-amine] | 43 nM | 1500 nM | > 2000 nM | 250 nM | 7 to 82 nM | 
COCCOc1cc2ncc3c(N)nc(-n4ccnc4)cc3c2cc1OC [Ia-48, 2-(1H-imidazol-1-yl)-9-methoxy-8-(2-methoxyethoxy)benzo[c]-2,7-naphthyridin-4-amine] |  | > 20000 nM | > 2000 nM | 200 nM | 1380 nM | 116 nM
COc1cc2c(cc1OCCCCl)ncc1c(N)nc(-n3ccnc3)cc12 [Ia-17, 8-(3-Chloropropoxy)-2-(1H-imidazol-1-yl)-9-methoxybenzo[c][2,7]naphthyridin-4-amine] | 105 nM | > 10000 nM | > 2000 nM | 280 nM | > 2000 nM | 
COc1cc2c(cc1O)ncc1c(N)nc(-n3ccnc3)cc12 [Ia-33, 4-Amino-2-(1H-imidazol-1-yl)-9-methoxybenzo[c]-2,7-naphthyridin-8-ol] | 90 nM | 2500 nM | > 2000 nM | 2000 nM | > 2000 nM | 
CCSc1cc2ncc3c(N)nc(-c4cncc(OC[C@@H](N)Cc5ccccc5)c4)cc3c2cc1OC [Ia-40, 2-(5-{[(2S)-2-amino-3-phenylpropyl]oxy}pyridin-3-yl)-8-(ethylthio)-9-methoxybenzo[c]-2,7-naphthyridin-4-amine] | 44.5 nM | > 20000 nM |  | 1000 nM |  | 525 nM
Nc1nc(-c2cncc(OC[C@@H](N)Cc3ccccc3)c2)cc2c1cnc1cc(C#CCCn3ccnc3)ccc12 [Ia-5, 2-(5-{[(2S)-2-Amino-3-phenylpropyl]oxy}pyridin-3-yl)-8-[4-(1H-imidazol-1-yl)but-1-yn-1-yl]benzo[c]-2,7-naphthyridin-4-amine] |  | 340 nM | 872 nM | 500 nM | 520 nM | 
COc1cc2c(cc1OCCCl)ncc1c(N)nc(-n3ccnc3)cc12 [Ia-21, 8-(2-chloroethoxy)-2-(1H-imidazol-1-yl)-9-methoxybenzo[c][2,7]naphthyridin-4-amine] | 65 nM | > 20000 nM | > 2000 nM | 300 nM | 1560 nM | 
COc1cc2ncc3c(N)nc(-c4cncc(OC[C@@H](N)COCc5ccccc5)c4)cc3c2cc1OC [Ib-51, 2-(5-{[(2S)-2-amino-3-(benzyloxy)propyl]oxy}pyridin-3-yl)-8,9-dimethoxybenzo[c]-2,7-naphthyridin-4-amine] | 5 nM | 340 nM | 712 nM | < 160 nM | 60 nM | 
COc1cc2ncc3c(N)nc(-c4cncn4C)cc3c2cc1OC [Ib-63, 8,9-Dimethoxy-2-(1-methyl-1H-imidazol-5-yl)benzo[c]-2,7-naphthyridin-4-amine] | 66 nM | > 20000 nM | > 2000 nM | 400 nM | 1270 nM | 
COc1cc2ncc3c(N)nc(-c4cncc(OC[C@@H](N)CN5CCc6ccccc6C5)c4)cc3c2cc1OC [Ib-50, 2-(5-{[(2S)-2-amino-3-(3,4-dihydroisoquinolin-2(1H)-yl)propyl]oxy}pyridin-3-yl)-8,9-dimethoxybenzo[c]-2,7-naphthyridin-4-amine] | 61 nM | 2100 nM | > 2000 nM | 160 nM | 220 nM | 
COc1cc2ncc3c(N)nc(-c4cncc(OC[C@@H](N)Cc5ccccc5Cl)c4)cc3c2cc1OC [Ib-52, 2-(5-{[(2S)-2-amino-3-(2-chlorophenyl)propyl]oxy}pyridin-3-yl)-8,9-dimethoxybenzo[c]-2,7-naphthyridin-4-amine] | 8 nM | 45 nM | 793 nM | 6.4 nM | 106 nM | 
COc1cc2ncc3c(N)nc(-c4cncc(OC[C@H](N)Cc5ccc(F)cc5)c4)cc3c2cc1OC [Ib-47, 2-(5-{[(2R)-2-amino-3-(4-fluorophenyl)propyl]oxy}pyridin-3-yl)-8,9-dimethoxybenzo[c]-2,7-naphthyridin-4-amine] | 15 nM | 25 nM | 251 nM | 12 nM | 93 nM | 
